pIC50: −log10 of the molar value.
Target: Glutamate receptor ionotropic, NMDA 1 (Rattus norvegicus, UniProt P35439)
Assay: Tested for the inhibition of [3H]5,7-dichlorokynurenic acid (DCKA) binding to NMDA receptor

pIC50 | SMILES
6.64 | CC1Cc2[nH]c(=O)c(=O)cc(O)c2CC1C (stereo not given)
6.08 | O=c1cc(O)c2ccccc2[nH]c1=O
5.49 | O=c1cc(O)c2c([nH]c1=O)CCCC2
7.89 | O=c1cc(O)c2ccc(Cl)cc2[nH]c1=O
6.88 | O=c1cc(O)c2c([nH]c1=O)CC(Cl)C(Cl)C2 (stereo not given)

— ChEMBL document CHEMBL1151093, “6,7,8,9-tetrahydro-3-hydroxy-1H-1-benzazepine-2,5-diones via a diels-alder reaction:antagonists with a non-planar hydrophobic region for NMDA receptor glycine sites” (Bioorg Med Chem Lett, 1995)
